# Laboratory results from PMC9719519, “Non-classical ferroptosis inhibition by a small molecule targeting PHB2” (Nature Communications, 2022).
# Tests used:
# Assay in all cases: biochemical
# Design in all cases: Eurofins recombinant human kinase profiling, remaining kinase activity as % of control, 10 uM ATP
# Conditions in all cases: ATP 10 uM; read-out: %Ctrl@10 μM
# eEF-2K(h) = biological target: T1, eEF-2K(h) (Homo sapiens, UniProt O00418)
# T1 construct: gene EEF2K
# Procedure, shortened: (§1)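 Recombinant human kinases, 401 in total, screened using an outsourced kinase profiling assay.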
# ALK2(h) = biological target: T2, ALK2(h) (Homo sapiens, UniProt Q04771)
# T2 construct: gene ACVR1
# Procedure, shortened: as §1
# Lck(h) activated = Lck(h) activated (Homo sapiens, UniProt P06239)
# Chain of Lck(h) activated (P06239 whole entry): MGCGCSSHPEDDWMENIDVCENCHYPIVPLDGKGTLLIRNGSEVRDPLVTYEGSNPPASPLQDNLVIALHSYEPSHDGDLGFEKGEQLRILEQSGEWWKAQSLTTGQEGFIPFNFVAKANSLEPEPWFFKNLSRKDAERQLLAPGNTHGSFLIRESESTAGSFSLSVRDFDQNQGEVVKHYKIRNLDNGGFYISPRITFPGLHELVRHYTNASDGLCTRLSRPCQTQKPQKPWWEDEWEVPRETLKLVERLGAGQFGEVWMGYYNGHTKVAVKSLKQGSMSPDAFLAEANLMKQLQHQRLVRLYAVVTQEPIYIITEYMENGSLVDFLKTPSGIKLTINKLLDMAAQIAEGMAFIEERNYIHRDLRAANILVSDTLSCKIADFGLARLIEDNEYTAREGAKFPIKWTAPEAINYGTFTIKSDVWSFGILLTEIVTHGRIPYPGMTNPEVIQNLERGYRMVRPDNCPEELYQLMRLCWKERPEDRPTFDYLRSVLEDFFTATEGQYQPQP
# Procedure, shortened: as §1
# CHK1(h) = biological target: T3, CHK1(h) (Homo sapiens, UniProt O14757)
# T3 construct: gene CHEK1
# Procedure, shortened: as §1
# PDGFRα(h) = biological target: T4, PDGFRα(h) (Homo sapiens, UniProt P16234)
# T4 construct: gene PDGFRA
# T4 sequence (P16234 whole entry): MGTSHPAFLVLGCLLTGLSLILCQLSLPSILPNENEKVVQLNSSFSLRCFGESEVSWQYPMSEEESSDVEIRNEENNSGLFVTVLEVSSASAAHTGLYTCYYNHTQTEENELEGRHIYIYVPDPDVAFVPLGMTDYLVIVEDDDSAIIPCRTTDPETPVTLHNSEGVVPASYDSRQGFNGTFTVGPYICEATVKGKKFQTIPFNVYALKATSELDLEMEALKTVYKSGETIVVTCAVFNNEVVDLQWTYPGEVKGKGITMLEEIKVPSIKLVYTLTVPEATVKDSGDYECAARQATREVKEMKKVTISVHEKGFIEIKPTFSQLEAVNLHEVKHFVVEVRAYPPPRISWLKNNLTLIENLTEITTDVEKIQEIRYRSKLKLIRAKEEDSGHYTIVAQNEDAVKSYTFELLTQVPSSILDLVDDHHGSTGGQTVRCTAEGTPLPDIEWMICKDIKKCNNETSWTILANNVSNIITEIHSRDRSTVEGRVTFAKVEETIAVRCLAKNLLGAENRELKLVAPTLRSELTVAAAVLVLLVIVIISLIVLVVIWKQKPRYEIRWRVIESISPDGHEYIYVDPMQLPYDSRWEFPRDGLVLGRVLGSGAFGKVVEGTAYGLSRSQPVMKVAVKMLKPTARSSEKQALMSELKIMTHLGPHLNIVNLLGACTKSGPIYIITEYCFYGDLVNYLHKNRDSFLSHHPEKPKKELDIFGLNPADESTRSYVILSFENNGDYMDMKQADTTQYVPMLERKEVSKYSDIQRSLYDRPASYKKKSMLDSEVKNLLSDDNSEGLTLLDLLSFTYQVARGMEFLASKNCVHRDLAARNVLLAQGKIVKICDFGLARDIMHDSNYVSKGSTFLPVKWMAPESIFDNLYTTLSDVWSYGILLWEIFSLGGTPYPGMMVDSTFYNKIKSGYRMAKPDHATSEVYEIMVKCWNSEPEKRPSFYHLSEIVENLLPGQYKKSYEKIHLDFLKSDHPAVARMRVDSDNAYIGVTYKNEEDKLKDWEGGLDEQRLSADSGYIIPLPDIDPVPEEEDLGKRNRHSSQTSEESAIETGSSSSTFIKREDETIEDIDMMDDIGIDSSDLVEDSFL
# Procedure, shortened: as §1
# Tie2(Y897S)(h) = biological target: T5, Tie2(Y897S)(h) (Homo sapiens, UniProt Q02763, Y897S)
# T5 construct: gene TEK
# T5 sequence (Q02763 whole entry Y897S): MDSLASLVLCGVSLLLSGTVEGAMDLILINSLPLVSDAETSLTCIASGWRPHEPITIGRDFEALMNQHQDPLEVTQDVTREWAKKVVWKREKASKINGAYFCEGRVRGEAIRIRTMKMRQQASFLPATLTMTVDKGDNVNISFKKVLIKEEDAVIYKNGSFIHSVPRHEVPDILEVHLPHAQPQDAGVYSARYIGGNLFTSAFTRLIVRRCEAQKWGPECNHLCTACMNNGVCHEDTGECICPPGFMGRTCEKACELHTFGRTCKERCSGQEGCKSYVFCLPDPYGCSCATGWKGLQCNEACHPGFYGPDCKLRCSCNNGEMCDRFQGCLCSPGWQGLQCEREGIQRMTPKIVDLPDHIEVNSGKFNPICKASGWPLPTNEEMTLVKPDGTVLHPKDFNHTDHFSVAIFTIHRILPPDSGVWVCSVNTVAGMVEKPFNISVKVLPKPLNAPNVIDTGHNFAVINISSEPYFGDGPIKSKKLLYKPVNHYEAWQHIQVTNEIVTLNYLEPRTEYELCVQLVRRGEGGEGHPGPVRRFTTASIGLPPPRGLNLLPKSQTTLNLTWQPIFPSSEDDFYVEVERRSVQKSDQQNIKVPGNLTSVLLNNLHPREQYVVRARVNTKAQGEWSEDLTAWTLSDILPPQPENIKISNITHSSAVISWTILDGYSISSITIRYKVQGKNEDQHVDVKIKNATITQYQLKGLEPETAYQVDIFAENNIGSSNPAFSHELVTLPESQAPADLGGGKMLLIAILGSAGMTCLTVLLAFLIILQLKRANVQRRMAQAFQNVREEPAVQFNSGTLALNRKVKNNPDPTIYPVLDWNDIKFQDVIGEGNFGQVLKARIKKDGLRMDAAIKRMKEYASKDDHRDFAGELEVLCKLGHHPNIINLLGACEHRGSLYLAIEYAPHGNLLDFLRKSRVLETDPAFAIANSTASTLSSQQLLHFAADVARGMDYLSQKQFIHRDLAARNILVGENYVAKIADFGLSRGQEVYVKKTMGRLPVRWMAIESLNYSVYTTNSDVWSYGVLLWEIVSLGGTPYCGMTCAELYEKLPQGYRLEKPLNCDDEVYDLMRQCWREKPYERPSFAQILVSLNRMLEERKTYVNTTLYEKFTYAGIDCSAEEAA
# Procedure, shortened: as §1
# BRK(h) = biological target: T6, BRK(h) (Homo sapiens, UniProt Q13882)
# T6 construct: gene PTK6
# T6 sequence (Q13882 whole entry): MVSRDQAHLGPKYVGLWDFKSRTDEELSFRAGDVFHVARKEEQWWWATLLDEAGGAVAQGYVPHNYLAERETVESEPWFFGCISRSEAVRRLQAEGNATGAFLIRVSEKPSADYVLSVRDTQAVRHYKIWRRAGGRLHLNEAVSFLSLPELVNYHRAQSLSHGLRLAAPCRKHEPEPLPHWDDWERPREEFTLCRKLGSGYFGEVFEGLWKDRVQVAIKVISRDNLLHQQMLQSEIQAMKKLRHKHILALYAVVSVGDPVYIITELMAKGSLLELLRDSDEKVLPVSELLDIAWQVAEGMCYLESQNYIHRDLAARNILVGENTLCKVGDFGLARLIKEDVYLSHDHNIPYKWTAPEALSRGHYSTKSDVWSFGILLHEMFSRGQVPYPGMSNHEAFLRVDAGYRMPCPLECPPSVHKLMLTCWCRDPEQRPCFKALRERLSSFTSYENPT
# Procedure, shortened: as §1
# SAPK2b(h) = biological target: T7, SAPK2b(h) (Homo sapiens, UniProt Q15759)
# T7 construct: gene MAPK11
# Procedure, shortened: as §1
# PAK6(h) = PAK6(h) (Homo sapiens, UniProt Q9NQU5)
# Chain of PAK6(h) (Q9NQU5 whole entry): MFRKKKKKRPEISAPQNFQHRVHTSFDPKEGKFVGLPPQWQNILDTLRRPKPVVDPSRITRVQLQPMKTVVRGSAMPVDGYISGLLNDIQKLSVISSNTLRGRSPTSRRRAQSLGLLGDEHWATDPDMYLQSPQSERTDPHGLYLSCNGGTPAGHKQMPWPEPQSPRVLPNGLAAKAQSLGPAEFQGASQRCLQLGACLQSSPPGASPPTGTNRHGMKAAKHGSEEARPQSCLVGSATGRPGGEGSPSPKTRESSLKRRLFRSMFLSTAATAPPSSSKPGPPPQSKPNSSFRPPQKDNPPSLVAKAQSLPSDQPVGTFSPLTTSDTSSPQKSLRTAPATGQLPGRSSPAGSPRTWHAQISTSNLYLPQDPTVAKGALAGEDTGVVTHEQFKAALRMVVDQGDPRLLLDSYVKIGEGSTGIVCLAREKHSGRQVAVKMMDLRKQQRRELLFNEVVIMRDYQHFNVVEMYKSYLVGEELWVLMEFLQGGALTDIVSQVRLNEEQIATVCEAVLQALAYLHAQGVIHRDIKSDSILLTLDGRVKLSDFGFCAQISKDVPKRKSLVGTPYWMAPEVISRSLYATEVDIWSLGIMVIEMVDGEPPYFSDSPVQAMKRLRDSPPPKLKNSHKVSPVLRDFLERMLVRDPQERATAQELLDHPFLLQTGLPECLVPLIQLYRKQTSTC
# Procedure, shortened: as §1
# MAP4K3(h) = MAP4K3(h) (Homo sapiens, UniProt Q8IVH8)
# Procedure, shortened: as §1
# GSK3β(h) = biological target: T8, GSK3β(h) (Homo sapiens, UniProt P49841)
# T8 construct: gene GSK3B
# Procedure, shortened: as §1
# NEK7(h) = NEK7(h) (Homo sapiens, UniProt Q8TDX7)
# Procedure, shortened: as §1
# CDKL1(h) = CDKL1(h) (Homo sapiens, UniProt Q00532)
# Procedure, shortened: as §1
# GRK5(h) = GRK5(h) (Homo sapiens, UniProt P34947)
# Procedure, shortened: as §1
# ALK1(h) = biological target: T9, ALK1(h) (Homo sapiens, UniProt P37023)
# T9 construct: gene ACVRL1
# T9 sequence (P37023 whole entry): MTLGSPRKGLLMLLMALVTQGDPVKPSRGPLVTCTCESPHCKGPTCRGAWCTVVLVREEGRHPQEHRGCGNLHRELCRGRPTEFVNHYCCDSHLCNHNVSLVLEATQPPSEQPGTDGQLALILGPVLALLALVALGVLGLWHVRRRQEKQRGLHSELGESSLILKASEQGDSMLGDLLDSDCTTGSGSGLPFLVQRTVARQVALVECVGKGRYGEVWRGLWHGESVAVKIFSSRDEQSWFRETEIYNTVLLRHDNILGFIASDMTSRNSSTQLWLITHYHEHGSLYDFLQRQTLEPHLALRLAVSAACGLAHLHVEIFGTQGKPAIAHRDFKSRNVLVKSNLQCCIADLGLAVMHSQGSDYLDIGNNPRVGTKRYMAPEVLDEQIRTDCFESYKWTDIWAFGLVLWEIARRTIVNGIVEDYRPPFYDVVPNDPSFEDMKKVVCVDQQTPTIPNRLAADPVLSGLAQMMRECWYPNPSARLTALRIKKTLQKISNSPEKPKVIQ
# Procedure, shortened: as §1
# c-RAF(h) = biological target: T10, c-RAF(h) (Homo sapiens, UniProt P04049)
# T10 construct: gene RAF1
# T10 sequence (P04049 whole entry): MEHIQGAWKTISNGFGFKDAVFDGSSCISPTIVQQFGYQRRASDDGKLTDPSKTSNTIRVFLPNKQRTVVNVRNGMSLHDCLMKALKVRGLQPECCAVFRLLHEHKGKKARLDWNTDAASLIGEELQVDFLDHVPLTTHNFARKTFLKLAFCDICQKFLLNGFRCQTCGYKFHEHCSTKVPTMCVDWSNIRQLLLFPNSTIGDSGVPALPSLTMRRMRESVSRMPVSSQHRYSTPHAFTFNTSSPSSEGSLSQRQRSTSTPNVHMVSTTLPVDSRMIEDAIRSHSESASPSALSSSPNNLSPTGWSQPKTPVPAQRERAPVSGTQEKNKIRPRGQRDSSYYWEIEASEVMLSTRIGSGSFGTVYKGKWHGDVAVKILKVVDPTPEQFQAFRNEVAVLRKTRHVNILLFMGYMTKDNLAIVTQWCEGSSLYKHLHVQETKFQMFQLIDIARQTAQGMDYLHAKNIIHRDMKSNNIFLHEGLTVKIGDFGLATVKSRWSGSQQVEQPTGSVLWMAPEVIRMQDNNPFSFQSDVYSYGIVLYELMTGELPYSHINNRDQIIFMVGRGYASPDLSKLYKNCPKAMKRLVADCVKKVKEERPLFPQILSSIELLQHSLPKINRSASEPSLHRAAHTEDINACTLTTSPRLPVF
# Procedure, shortened: as §1
# SLK(h) = SLK(h) (Homo sapiens, UniProt Q9H2G2)
# Procedure, shortened: as §1
# LRRK2(h) = LRRK2(h) (Homo sapiens, UniProt Q5S007)
# Procedure, shortened: as §1
# ALK4(h) = biological target: T11, ALK4(h) (Homo sapiens, UniProt P36896)
# T11 construct: gene ACVR1B
# Procedure, shortened: as §1
# Hck(h) = Hck(h) (Homo sapiens, UniProt P08631)
# Procedure, shortened: as §1
# HIPK2(h) = HIPK2(h) (Homo sapiens, UniProt Q9H2X6)
# Procedure, shortened: as §1
# PAK3(h) = PAK3(h) (Homo sapiens, UniProt O75914)
# Procedure, shortened: as §1
# SRPK2(h) = SRPK2(h) (Homo sapiens, UniProt P78362)
# Procedure, shortened: as §1
compound,measurement,setting,value
C1=C(c2nc(-c3cnn(C4CCNCC4)c3)cn3cc(-c4ccccc4)nc23)CCOC1 [YL-939],remaining activity at 10 µM,eEF-2K(h),93%
same,remaining activity at 10 µM,ALK2(h),88%
same,remaining activity at 10 µM,Lck(h) activated,77%
same,remaining activity at 10 µM,CHK1(h),98%
same,remaining activity at 10 µM,PDGFRα(h),76%
same,remaining activity at 10 µM,Tie2(Y897S)(h),91%
same,remaining activity at 10 µM,BRK(h),109%
same,remaining activity at 10 µM,SAPK2b(h),84%
same,remaining activity at 10 µM,PAK6(h),65%
same,remaining activity at 10 µM,MAP4K3(h),79%
same,remaining activity at 10 µM,GSK3β(h),96%
same,remaining activity at 10 µM,NEK7(h),89%
same,remaining activity at 10 µM,CDKL1(h),96%
same,remaining activity at 10 µM,GRK5(h),72%
same,remaining activity at 10 µM,ALK1(h),94%
same,remaining activity at 10 µM,c-RAF(h),76%
same,remaining activity at 10 µM,SLK(h),70%
same,remaining activity at 10 µM,LRRK2(h),103%
same,remaining activity at 10 µM,ALK4(h),117%
same,remaining activity at 10 µM,Hck(h),98%
same,remaining activity at 10 µM,HIPK2(h),90%
same,remaining activity at 10 µM,PAK3(h),70%
same,remaining activity at 10 µM,SRPK2(h),87%
